# How the values were obtained:
# [1] = system: hem1Δ yeasts grown under SFA accumulation conditions; assay: Restoration of growth of lipointoxicated hem1Δ yeast; format: cell-based, Saccharomyces cerevisiae; conditions: after 3 days, increasing concentrations
# Description: The strain bearing the hem1Δ mutation is grown, under aerobic conditions, with shaking and at 28° C., in liquid YPG^A medium (YPG (1% yeast extract (w/v), 1% peptone (w/v) and 2% glucose (w/v)) supplemented with 80 μg/ml 6-aminolevulinic acid (ALA)). Lipointoxication by saturated fatty acids (SFA) is caused by depletion of unsaturated fatty acids (UFA), the synthesis of which is dependent on the presence of heme (the prosthetic group of the Ole1p enzyme in particular), by transfer to YPG^+ medium (YPG supplemented with 80 μg/ml ergosterol to compensate for the sterol depletion obtained under this condition). Lipointoxication can be induced on solid YPG^+ medium+2% agar (w/v) by transferring 3500 cells (hem1Δ from preculture in YPG^A) per cm^2 or, alternatively, in liquid medium by inoculating 2×10^6 cells/ml YPG^+. Classically, the effects of SFA lipointoxication are analyzed 7 hours after the transfer to YPG^+ medium. The ability of a compound to counter the deleterious effects of SFA lipointoxication, in turn, is evaluated successively to the addition of this compound on (or in) the YPG^+ transfer medium, after seeding with the cells.
# Following the induction of SFA lipointoxication (for hem1Δ grown on solid medium) 5 μl drops of solutions of the various compounds at 10 mM in dimethylsulfoxide (DMSO) or ethanol (EtOH) are deposited on the surface of the agar. The ability of a compound to counter the arrest of lipid-induced cell growth is estimated by the appearance of a halo of hem1Δ colonies at the site of the deposition of said compound after 3 days of culture at 28° C. (see Deguil et al., 2011).
# Jointly with the induction of SFA lipointoxication (for hem1Δ in liquid medium), the various compounds are added to the cultures at an initial concentration of 200 μM. Proliferation is monitored by spectrometric measurement of cell density, at regular time intervals (every hour over the duration of the observation). At a wavelength of 600 nm, one optical density unit (OD600 nm) corresponds to 2×10^7 cells/ml.
# [2] = system: MIN6 pancreatic β-cells; assay: Monitoring of insulin maturation (Western blot, anti-insulin); format: cell-based, mouse; conditions: MIN6, 400 μM palmitic acid 48 hours, 200 μM compound during final 24 hours
# Description: Pancreatic β-cells, MIN6, were grown under control conditions (0) or, alternatively, in the presence of an exogenous source of 400 μM palmitic acid (P), for 48 hours, as described by Boslem et al. (2011), in order to generate lipointoxication conditions. During the final 24 hours of growth, 200 μM OAG, LPA or mannide monooleate was added or not as mentioned.
# In the manner of that described above for the lipointoxication of BRIN-BD11 cells, the MIN6 cell line is grown in complete DMEM-High Glucose medium […], supplemented with 10% (v/v) fetal calf serum (FCS), 15 mM HEPES, 100 U/ml penicillin and 100 μg/ml streptomycin, and lipointoxication is induced by exposure to 400 μM palmitic acid, coupled to BSA (0.92% (w/v) final), for 48 hours, with or without the addition of the compound of interest (see Boslem et al., 2011). The cells are then collected and a Western blot is carried out as indicated above, using anti-insulin antibodies in order to follow the maturation of proinsulin to insulin.
# [3] = system: eIF2α phosphorylation (UPR); assay: eIF2α phosphorylation by Western blot in lipointoxicated β-cells; format: cell-based, rat; conditions: BRIN-BD11, 200 μM palmitic acid
# Description: Pancreatic β-cells, BRIN-BD11, were grown under control conditions or in the presence of an exogenous source of saturated fatty acid (200 μM palmitic acid), as described by Dhayal & Morgan (2011), in order to generate lipointoxication conditions, with or without the addition of OAG. A) The proportion of dead cells was estimated in the absence (control) or presence of palmitic acid, for increasing concentrations of OAG. B) eIF2α phosphorylation levels were also analyzed under the various conditions by Western blot, in the presence or absence (Ø) of OAG, and were normalized to total eIF2α.
# BRIN-BD11 cells are seeded at a density of 0.5×10^5 cells/ml in T25 flasks for 24 hours. As indicated above, the complete medium is then replaced by an equivalent lacking FCS but containing the lipid reagents of interest. After 6 hours of incubation, total protein is extracted using lysis buffer (20 mM Tris, 150 mM NaCl, 1 mM EDTA and 1% (v/v) Triton-X) containing protease and phosphatase inhibitors. […] The densitometric analysis of the relative abundance of phosphorylated or non-phosphorylated forms of eIF2α protein is carried out with the Fluor-S Multilmager analysis system combined with the Quantity One software (Bio-Rad UK Ltd).
# [4] = system: lipase; assay: Resistance to hydrolytic activity of lipases (thin-layer chromatography); format: in vitro ADME; conditions: 10 U of lipase, 30 minutes, 37° C.
# Description: OAG (15 μmol) and N,N-diethanololeamide were subjected (+) or not (−) to exposure to 10 U of lipase for 30 minutes at 37° C. Following the incubation, the lipid species were extracted from the samples before being separated by thin-layer chromatography.
SMILES,Restoration of the growth of hem1Δ yeasts [1],Maturation of proinsulin to insulin [2],eIF2α phosphorylation level normalized to total eIF2α (UPR intensity) [3],Hydrolysis by lipases [4]
"CCCCCCCC/C=C\CCCCCCCC(=O)OC[C@@H](O)COP(=O)(O)O [LPA, 1-oleoyl-sn-glycerol-3-phosphate]",restore the growth,only mannide monooleate restores,,
"CCCCCCCC/C=C\CCCCCCCC(=O)OC[C@H](CO)OC(C)=O [OAG, 1-oleoyl-2-acetyl-sn-glycerol]",restore the growth,only mannide monooleate restores,reduces the UPR,unlike OAG

# Reference: patent publication US10231985B2, “Compounds and compositions comprising such compounds for the prevention or treatment of dyslipidaemias” (CENTRE NATIONAL DE LA RECHERCHE SCIENTIFIQUE, priority 2013, dated 2019)
